Measured values as given in US5807886A, “Bicyclic amidine dervatives as inhibitors of nitric oxide synthetase” (priority 1994, dated 1998).

Assays:
[1] = target: T1, endothelial nitric oxide synthetase (Homo sapiens, UniProt P29474); experiment: Screen C: endothelial nitric oxide synthetase inhibiting activity; assay type: biochemical
T1 construct: Enzyme may be isolated from human umbilical vein endothelial cells (HUVECs); endogenous in cells; host or cells: HUVECs (cells purchased from Clonetics Corp, San Diego); CHAPS-solubilised pellet supernatant
T1 sequence (P29474 2-1203): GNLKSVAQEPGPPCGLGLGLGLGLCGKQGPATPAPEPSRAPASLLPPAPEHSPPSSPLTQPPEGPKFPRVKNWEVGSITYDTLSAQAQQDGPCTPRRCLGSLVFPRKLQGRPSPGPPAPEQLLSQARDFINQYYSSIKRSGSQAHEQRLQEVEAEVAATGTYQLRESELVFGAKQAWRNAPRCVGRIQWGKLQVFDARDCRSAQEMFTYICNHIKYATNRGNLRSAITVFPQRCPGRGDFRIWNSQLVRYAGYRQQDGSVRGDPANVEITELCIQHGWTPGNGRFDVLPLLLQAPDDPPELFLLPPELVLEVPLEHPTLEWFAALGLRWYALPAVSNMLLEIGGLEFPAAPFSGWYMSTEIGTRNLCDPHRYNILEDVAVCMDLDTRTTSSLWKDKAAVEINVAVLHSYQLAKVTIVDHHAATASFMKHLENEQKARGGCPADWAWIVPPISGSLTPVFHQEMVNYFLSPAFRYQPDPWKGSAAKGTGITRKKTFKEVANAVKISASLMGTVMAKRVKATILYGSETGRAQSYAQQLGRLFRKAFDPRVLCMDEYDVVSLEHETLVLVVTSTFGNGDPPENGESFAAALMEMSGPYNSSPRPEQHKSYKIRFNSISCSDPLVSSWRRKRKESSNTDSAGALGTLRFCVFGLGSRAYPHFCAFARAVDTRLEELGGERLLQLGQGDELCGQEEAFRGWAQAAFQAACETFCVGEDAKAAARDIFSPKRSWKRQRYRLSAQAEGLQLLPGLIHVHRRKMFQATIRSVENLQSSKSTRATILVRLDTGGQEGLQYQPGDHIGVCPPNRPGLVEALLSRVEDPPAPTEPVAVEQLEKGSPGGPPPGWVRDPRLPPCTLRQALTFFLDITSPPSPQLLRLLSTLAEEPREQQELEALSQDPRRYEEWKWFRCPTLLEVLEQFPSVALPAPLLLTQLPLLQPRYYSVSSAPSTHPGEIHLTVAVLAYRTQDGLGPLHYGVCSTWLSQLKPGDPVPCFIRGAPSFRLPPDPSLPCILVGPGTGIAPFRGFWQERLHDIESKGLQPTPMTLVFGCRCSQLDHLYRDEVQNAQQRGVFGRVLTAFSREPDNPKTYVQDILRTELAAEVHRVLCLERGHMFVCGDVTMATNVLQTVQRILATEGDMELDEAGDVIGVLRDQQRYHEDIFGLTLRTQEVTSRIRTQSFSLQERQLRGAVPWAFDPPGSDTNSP
Method: HUVECs were purchased from Clonetics Corp (San Diego, Calif. USA) and cultured to confluency. Cells can be maintained to passage 35-40 without significant loss of yield of nitric oxide synthetase. When cells reach confluency, they are resuspended in Dulbecco's phosphate buffered saline, centrifuged at 800 rpm for 10 mins, the cell pellet homogenised in ice-cold 50 mM Tris-HCl , 1 mM EDTA, 10% glycerol, 1 mM phenylmethylsulphonylfluoride, 2 μM leupeptin at pH 4.2. Following centrifugation at 34,000 rpm for 60 mins, the pellet is solubilised in the homogenisation buffer which also contains 20 mM CHAPS. After a 30 min incubation on ice, the suspension is centrifuged at 34,000 rpm for 30 mins. The resulting supernatant is stored at -80° C. until use. […]
Labelled L-citrulline is separated from labelled L-arginine by chromatography over a Dowex AG-50W-X8 200-400 mesh column. […] The L-citrulline is then quantified by scintillation counting. […]

[2] = target: T2, macrophage nitric oxide synthetase (Mus musculus, UniProt P29477); experiment: Screen B: macrophage nitric oxide synthetase inhibiting activity; assay type: biochemical, murine; details: macrophage IC50 / neuronal IC50
T2 construct: Enzyme is prepared, after induction, from the cultured murine macrophage cell line J774A-1; endogenous in cells; host or cells: J774A-1 murine macrophages induced with LPS and IFN-gamma (lysate); cells from laboratories of the Imperial Cancer Research Fund
Excerpt: The enzyme nitric oxide synthetase has a number of isoforms and compounds of formula I, or pharmaceutically acceptable salts thereof, may be screened for nitric oxide synthetase inhibiting activity by procedures based on those of Bredt and Snyder in Proc. Natl. Acad. Sci. (1990) 87, 682-685 and Forstermann et. al., Eur. J. Pharm. (1992) 225, 161-165 as follows. Nitric oxide synthetase converts ^3 H-L-arginine to ^3 H-L-citrulline which can be separated by cation exchange chromatography and quantified by scintillation counting.
Enzyme is prepared, after induction, from the cultured murine macrophage cell line J774A-1 (obtained from laboratories of the Imperial Cancer Research Fund).
J774A-1 cells are cultured in Dulbecco's Modified Eagles Medium (DMEM) supplemented with 10% foetal bovine serum, 4 mM L-glutamine and antibiotics (100 units/ml penicillin G, 100 μg/ml streptomycin & 0.25 μg/ml amphotericin B).
Cells are routinely grown in 225 cm^2 flasks containing 35 ml medium kept at 37° C. and in a humidified atmosphere containing 5% CO2.
Nitric oxide synthetase is produced by cells in response to interferon-γ (IFNγ) and lipopolysaccharide (LPS). […]
Labelled L-citrulline is separated from labelled L-arginine using Dowex AG-50W. […] After allowing the samples to dry the L-citrulline is quantified by scintillation counting. […]

[3] = target: T3, neuronal nitric oxide synthetase (Rattus norvegicus, UniProt P29476); experiment: Screen A: neuronal nitric oxide synthetase inhibiting activity; assay type: biochemical; details: enzyme from rat hippocampus or cerebellum; 22° C., pH 7.4, 10 minutes; read-out: IC50 in Screen A (neuronal isoform)
T3 construct: Enzyme was isolated from rat hippocampus or cerebellum; from tissue; host or cells: male Sprague-Dawley rat cerebellum or hippocampus, 20,000 g supernatant
T3 sequence (P29476 whole entry, canonical isoform): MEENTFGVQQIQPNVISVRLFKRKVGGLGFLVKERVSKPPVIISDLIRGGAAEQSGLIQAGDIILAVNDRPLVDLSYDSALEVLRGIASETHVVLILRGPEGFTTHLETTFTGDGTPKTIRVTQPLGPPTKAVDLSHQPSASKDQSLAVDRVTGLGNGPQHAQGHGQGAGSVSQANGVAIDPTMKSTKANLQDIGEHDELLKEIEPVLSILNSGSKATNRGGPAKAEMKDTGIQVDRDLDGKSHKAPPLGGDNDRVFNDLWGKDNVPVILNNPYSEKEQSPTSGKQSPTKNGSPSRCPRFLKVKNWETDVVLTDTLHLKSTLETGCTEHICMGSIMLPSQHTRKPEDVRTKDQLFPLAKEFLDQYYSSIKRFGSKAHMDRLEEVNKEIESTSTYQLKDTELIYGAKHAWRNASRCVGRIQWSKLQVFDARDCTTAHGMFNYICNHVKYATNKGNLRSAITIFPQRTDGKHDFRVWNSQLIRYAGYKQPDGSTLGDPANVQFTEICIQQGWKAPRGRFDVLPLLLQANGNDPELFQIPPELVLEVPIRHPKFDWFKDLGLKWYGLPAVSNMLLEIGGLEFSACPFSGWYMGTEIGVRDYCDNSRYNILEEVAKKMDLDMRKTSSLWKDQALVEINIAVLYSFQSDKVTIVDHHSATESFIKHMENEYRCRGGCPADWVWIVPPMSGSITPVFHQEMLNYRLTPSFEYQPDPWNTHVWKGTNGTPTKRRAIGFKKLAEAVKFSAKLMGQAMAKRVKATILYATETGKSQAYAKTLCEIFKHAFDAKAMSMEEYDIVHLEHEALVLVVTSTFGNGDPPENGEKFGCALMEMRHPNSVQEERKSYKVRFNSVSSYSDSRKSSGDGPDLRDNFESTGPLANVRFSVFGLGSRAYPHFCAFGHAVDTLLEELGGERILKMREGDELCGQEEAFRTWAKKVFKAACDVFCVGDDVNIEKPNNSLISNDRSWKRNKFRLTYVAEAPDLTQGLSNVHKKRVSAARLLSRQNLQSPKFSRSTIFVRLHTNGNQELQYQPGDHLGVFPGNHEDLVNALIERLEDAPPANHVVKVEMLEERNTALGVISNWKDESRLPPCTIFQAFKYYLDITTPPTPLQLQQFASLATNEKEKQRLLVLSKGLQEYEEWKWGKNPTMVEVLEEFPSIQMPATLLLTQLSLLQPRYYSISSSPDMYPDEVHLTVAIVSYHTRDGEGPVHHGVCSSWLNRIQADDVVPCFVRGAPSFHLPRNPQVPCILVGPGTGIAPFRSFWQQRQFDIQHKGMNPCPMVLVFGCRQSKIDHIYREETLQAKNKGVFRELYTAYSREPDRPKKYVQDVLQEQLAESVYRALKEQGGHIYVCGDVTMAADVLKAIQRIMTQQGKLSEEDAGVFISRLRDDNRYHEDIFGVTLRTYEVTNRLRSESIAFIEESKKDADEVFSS
Method: Enzyme was isolated from rat hippocampus or cerebellum. The cerebellum or hippocampus of a male Sprague-Dawley rat (250-275 g) is removed following CO2 anaesthesia of the animal and decapitation. Cerebellar or hippocampal supernatant is prepared by homogenisation in 50 mM Tris-HCl with 1 mM EDTA buffer (pH 7.2 at 25° C.) and centifugation for 15 minutes at 20,000 g. Residual L-arginine is removed from the supernatant by chromatography through Dowex AG-50W-X8 sodium form and hydrogen form columns successively, and further centrifugation at 1000 g for 30 seconds. […]
Labelled L-citrulline is separated from labelled L-arginine by chromatography over a Dowex AG-50W-X8 200-400 mesh column. 1 ml of each terminated reaction is added to an individual 1 ml column and the eluant combined with that from two 1 ml distilled water washes and 16 ml of scintillation cocktail The L-citrulline is then quantified by scintillation counting. […]

## N=C(NCCC[C@H](N)C(=O)O)N[N+](=O)[O-] [N-nitro-L-arginine, reference compound]
[1]; at a concentration of 1 μM, HUVEC enzyme, read-out: inhibition of nitric oxide synthetase (reference standard, Screen C)
  inhibition at 1 µM: 70 to 90%

## N=C(Nc1ccc2c(c1)CC(NCc1ccccc1)C2)c1cccs1 (stereo not shown) [Example 1, N-((2-(Phenylmethyl)amino)indan-5-yl)-2-thiophenecarboximidamide dioxalate]
[2]
  IC50 in Screen B relative to that obtained in Screen A (selectivity): more than 10 times
[3]
  IC50: < 10 µM
[1]; endothelial IC50 / neuronal IC50
  IC50 in Screen C relative to that obtained in Screen A (selectivity): more than 10 times
